Source: PubChem BioAssay AID488835 (Broad Institute, 2010)

Target: Lysine-specific demethylase 4C (Homo sapiens) (UniProt Q9H3R0)
Assay: GASC-1 (JMJD2C) histone demethylase inhibitors, dose response, biochemical, DELFIA europium, cherry-picked samples (AID 488835);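 also: signal is the H3K9me2 demethylation product detected by a dimethyl-specific antibody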
Conditions: GST-JMJD2C(1-420), H3K9me3 demethylation

Lysine-specific demethylase 4C (Homo sapiens), sequence (Q9H3R0 1-420 limits assumed): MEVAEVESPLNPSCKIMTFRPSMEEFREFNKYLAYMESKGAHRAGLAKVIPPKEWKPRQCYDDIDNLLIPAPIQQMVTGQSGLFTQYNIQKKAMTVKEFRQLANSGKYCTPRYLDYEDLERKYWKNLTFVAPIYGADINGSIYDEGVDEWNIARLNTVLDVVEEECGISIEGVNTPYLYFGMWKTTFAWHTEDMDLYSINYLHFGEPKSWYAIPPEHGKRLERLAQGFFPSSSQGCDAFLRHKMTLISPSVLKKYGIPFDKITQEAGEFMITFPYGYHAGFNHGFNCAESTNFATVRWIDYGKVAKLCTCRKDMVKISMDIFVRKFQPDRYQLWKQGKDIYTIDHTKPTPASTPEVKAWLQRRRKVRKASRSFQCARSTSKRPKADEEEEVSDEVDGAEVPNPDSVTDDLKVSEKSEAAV

AC50: 6.07 µM
SMILES: C#CCOCCOCCOCCNc1nc(N2CCN(C(=O)CCCCCCCCCCNC(=O)[C@H]([C@@H](C)CC)n3cc(CCCCN=C(N)N)nn3)CC2)nc(N2CCN(C(=O)CCCCCCCCCCNC(=O)[C@H](CCCCN)n3cc(C)nn3)CC2)n1
